Results: patent US8952024B2, “Herbicidal pyrimidone derivatives” (E I du Pont de Nemours and Company, priority 2009, dated 2015)

How the values were obtained:
Format in all cases: in vivo
[1] = system: ducksalad (Heteranthera limosa); assay: Test B flooded paddy test
Outline: (§1)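 Seedlings reaching 2 leaves are flooded 3 cm deep; test material is delivered to that water, which stays at the same depth. Plants remain in a greenhouse 13–15 days and are then scored by eye versus controls from 0 to 100.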

rice (Oryza sativa) = assay: Test B flooded paddy test
Outline: as §1

[2] = system: umbrella sedge (Cyperus difformis); assay: Test B flooded paddy test
Outline: as §1

[3] = system: barnyardgrass (Echinochloa crus-galli); assay: Test B flooded paddy test
Outline: as §1

[4] = system: velvetleaf (Abutilon theophrasti); assay: Test A pre-/postemergence plant response
Text: (§2) Seeds of barnyardgrass (Echinochloa crus-galli), large crabgrass (Digitaria sanguinalis), giant foxtail (Setaria faberii), morningglory (Ipomoea spp.), pigweed (Amaranthus retroflexus), velvetleaf (Abutilon theophrasti), wheat (Triticum aestivum) and corn (Zea mays) were planted into a blend of loam soil and sand and treated preemergence with a directed soil spray using test chemicals formulated in a non-phytotoxic solvent mixture which included a surfactant. At the same time these species were also treated with postemergence applications of test compounds formulated in the same manner.
(§3) Plants ranged in height from two to ten cm and were in the one- to two-leaf stage for the postemergence treatment. Treated plants and untreated controls were maintained in a greenhouse for approximately ten days, after which time all treated plants were compared to untreated controls and visually evaluated for injury. Plant response ratings, summarized in Table A, are based on a 0 to 100 scale where 0 is no effect and 100 is complete control. A dash (-) response means no test result.

[5] = system: large crabgrass (Digitaria sanguinalis); assay: Test A pre-/postemergence plant response
Text: as §2, §3

[6] = system: wheat (Triticum aestivum); assay: Test A pre-/postemergence plant response
Text: as §2, §3

[7] = system: morningglory (Ipomoea spp.); assay: Test A pre-/postemergence plant response
Text: as §2, §3

corn (Zea mays) = assay: Test A pre-/postemergence plant response
Text: as §2, §3

[8] = system: giant foxtail (Setaria faberii); assay: Test A pre-/postemergence plant response
Text: as §2, §3

[9] = system: pigweed (Amaranthus retroflexus); assay: Test A pre-/postemergence plant response
Text: as §2, §3

[10] = system: barnyardgrass (Echinochloa crus-galli); assay: Test A pre-/postemergence plant response
Text: as §2, §3

[11] = 250 g ai/ha, flooded paddy test, visual rating on 0 to 100 scale (0 no effect, 100 complete control) after 13 to 15 days
[12] = Flood (flooded paddy test), 62 g ai/ha, scale 0 to 100, 0 is no effect, 100 is complete control, 13 to 15 days
[13] = Postemergence, 125 g ai/ha, visual injury, 0 to 100 scale (0 no effect, 100 complete control), approx. ten days
[14] = Postemergence, 500 g ai/ha, 0 to 100 scale, 0 = no effect, 100 = complete control, approx. ten days
[15] = Preemergence, 125 g ai/ha, 0 to 100 scale, 0 = no effect, 100 = complete control
[16] = Preemergence, 500 g ai/ha, visual injury, 0 to 100 scale (0 no effect, 100 complete control), approx. ten days

`O=C1CCCC(O)=C1C(=O)c1cnc(-c2ccc(Cl)cc2)n(-c2ccccc2)c1=O` [Compound 25] was tested, and the “Plant response rating, Flood, Ducksalad” value [1, 11] was 0, the “Plant response rating, Ducksalad” value [1, 12] was 0 and the “Plant response rating, Flood, Rice” value (rice (Oryza sativa); [11]) was 0. For the same molecule, the “Plant response rating, Rice” value (rice (Oryza sativa); [12]) was 0, the “Plant response rating, Flood, Sedge, Umbrella” value [2, 11] was 0 and the “Plant response rating, Sedge, Umbrella” value [2, 12] was 0. The “Plant response rating, Flood, Barnyardgrass” value [3, 11] was 0, the “Plant response rating, Barnyardgrass” value [3, 12] was 0 and the “Velvetleaf plant response rating” value [4, 13] was 100. The “Plant response rating, Velvetleaf” value [4, 14] was 100, the “Plant response rating, Velvetleaf” value [4, 15] was 80 and the “Plant response rating, Velvetleaf” value [4, 16] was 100. The “Crabgrass, Large plant response rating” value [5, 13] was 40, the “Plant response rating, Crabgrass, Large” value [5, 14] was 90 and the “Plant response rating, Crabgrass, Large” value [5, 15] was 60. For the same molecule, the “Plant response rating, Crabgrass, Large” value [5, 16] was 100, the “Wheat plant response rating” value [6, 13] was 0 and the “Plant response rating, Wheat” value [6, 14] was 0. The “Plant response rating, Wheat” value [6, 15] was 0, the “Plant response rating, Wheat” value [6, 16] was 20 and the “Morningglory plant response rating” value [7, 13] was 50. For the same molecule, the “Plant response rating, Morningglory” value [7, 14] was 90, the “Plant response rating, Morningglory” value [7, 15] was 0 and the “Plant response rating, Morningglory” value [7, 16] was 60. The “Corn plant response rating” value (corn (Zea mays); [13]) was 0, the “Plant response rating, Corn” value (corn (Zea mays); [14]) was 20 and the “Plant response rating, Corn” value (corn (Zea mays); [15]) was 0. For the same molecule, the “Plant response rating, Corn” value (corn (Zea mays); [16]) was 0, the “Foxtail, Giant plant response rating” value [8, 13] was 50 and the “Plant response rating, Foxtail, Giant” value [8, 14] was 90. For the same molecule, the “Plant response rating, Foxtail, Giant” value [8, 15] was 50, the “Plant response rating, Foxtail, Giant” value [8, 16] was 90 and the “Pigweed plant response rating” value [9, 13] was 80. For the same molecule, the “Plant response rating, Pigweed” value [9, 14] was 100, the “Plant response rating, Pigweed” value [9, 15] was 50 and the “Plant response rating, Pigweed” value [9, 16] was 80. For the same molecule, the “Barnyardgrass plant response rating” value [10, 13] was 30, the “Plant response rating, Barnyardgrass” value [10, 14] was 90 and the “Plant response rating, Barnyardgrass” value [10, 15] was 20. For the same molecule, the “Plant response rating, Barnyardgrass” value [10, 16] was 80.
